Data as given in patent publication US9061984B2 (University of Louisville Research Foundation, Inc., priority 2008, dated 2015).
In brackets after ≈: the same amount, converted by molar mass. Read-outs that look alike come from different tables or passages of the source.

How the values were obtained:
[1] = system: Trypanosoma cruzi (Tulahuen C4); assay: In vitro anti-T. cruzi activity (β-galactosidase CPRG colorimetric assay in VERO monolayer); assay type: cell-based; details: for Selectivity Index Lab B: IC50, VERO/IC50, T. cruzi
[2] = Cytotoxicity on VERO cells (MTT), anti-T. cruzi study; details: African green monkey, VERO cells
VERO cells [3] = assay: as above; details: Chlorocebus sabaeus, Vero, read-out: IC50 VERO, Table 3
[4] = system: axenic amastigotes of L. amazonensis (strain MHOM/BR/76/LTB-012); assay: microbe, parasite or virus in culture; details: Leishmania amazonensis
M. tuberculosis H37Rv = assay: Conventional aerobic (MABA) culture assay, luminescence MIC; assay type: cell-based, Mycobacterium tuberculosis; details: Mycobacterium tuberculosis, 168 h; aerobic, 7 days, H37Rv
H460 cells = assay: Cell growth inhibition bioassay (sulforhodamine B); assay type: cell-based, human; details: Homo sapiens, NCI-H460; 48 h, SRB; read-out: GI50 in indicated cell line: H460
Experimental: (§1) The cytotoxicity of compounds was assayed as follows. […] Appropriate solvent controls were tested for comparison. The percent inhibition of cell growth relative to the control was evaluated colorimetrically using a sulforhodamine B dye by comparison to the control. The calorimetric procedure followed that published in Skehan et al., J. Nat. Cancer Inst., […], pp. 1107-1112 (1990) and Boyd & Paull, Drug Dev. Res., Vol. 34, pp. 91-109 (1995). […] The cell lines are: 3T3 cells are BALB/3T3 clone A31 embryonic mouse fibroblast cells; H460 cells are human large cell lung cancer cells; DU145 cells are human prostate carcinoma cells; MCF-7 cells are human breast adenocarcinoma cells; M-14 cells are human melanoma cells; HT-29 cells are human colon adenocarcinoma cells; PC3 cells are human prostate adenocarcinoma cells; K562 cells are human chronic myelogenous leukemia cells; and VERO cells are African Green Monkey kidney epithelial cells.

HT-29 cells = assay: Cell growth inhibition bioassay (sulforhodamine B); assay type: cell-based, human; details: Homo sapiens, HT-29; 48 h, SRB; read-out: GI50 in indicated cell line: HT-29
Experimental: as §1

MCF-7 cells = assay: Cell growth inhibition bioassay (sulforhodamine B); assay type: cell-based, human; details: Homo sapiens, MCF7; 48 h, SRB; read-out: GI50 in indicated cell line: MCF-7
Experimental: as §1

K562 cells = assay: Cell growth inhibition bioassay (sulforhodamine B); assay type: cell-based, human; details: Homo sapiens, K562; 48 h, SRB; read-out: GI50 in indicated cell line: K562
Experimental: as §1

M-14 cells = assay: Cell growth inhibition bioassay (sulforhodamine B); assay type: cell-based, human; details: Homo sapiens, M14; 48 h, SRB; read-out: GI50 in indicated cell line: M-14
Experimental: as §1

DU145 cells = assay: Cell growth inhibition bioassay (sulforhodamine B); assay type: cell-based, human; details: Homo sapiens, DU-145; 48 h, SRB; read-out: GI50 in indicated cell line: DU145
Experimental: as §1

3T3 cells = assay: Cell growth inhibition bioassay (sulforhodamine B); assay type: cell-based, mouse; details: Mus musculus, NIH3T3; 48 h, SRB; read-out: GI50 in indicated cell line: 3T3
Experimental: as §1

[5] = system: axenic amastigotes of L. amazonensis (strain MHOM/BR/76/LTB-012); details: Table 8b
[6] = Toxicity to peritoneal macrophages (Trypan Blue count); assay type: cell-based, BALB/C mouse; details: BALB/C, mouse, Cytotoxicity Macrophages IC50
Experimental: Peritoneal macrophages were prepared as follows. Non-inflammatory macrophages (10^6) were collected from each BALB/C mouse. The cells adhered at 37° C. after 2 h under 5% CO2 in a CO2 incubator. The plates were then rinsed two to three times with 0.5 mL of RPMI+buffer MOPS without fetal calf serum to eliminate non-adhering cells. The supernatant on the plates was replaced by fresh medium (RPMI+glutamine+FCS+antibiotics), 0.5 mL of medium per well. To determine the toxicity of the compounds to macrophages, dilutions of compounds were added on a part of the macrophages prepared above. […] The medium was then removed and 1 μL of sterile Trypan Blue was added. Cover glasses N° 1 were left where cells were plated and then the number of macrophages in a microscope was determined with a haemocytometer. All experiments were performed in triplicate.

VERO cells [7] = assay: Cell growth inhibition bioassay (sulforhodamine B); assay type: cell-based, African Green Monkey; details: Chlorocebus sabaeus, Vero; 48 h, SRB; read-out: GI50 in indicated cell line: VERO
Experimental: as §1

[8] = Trypanosoma cruzi, TULAHUEN, Vero, Table 3, read-out: IC50 T. cruzi
[9] = Trypanosoma cruzi, TULAHUEN, Vero, Lab B, read-out: T. cruzi IC50 Lab B
[10] = Trypanosoma cruzi, TULAHUEN, Vero, Lab A, read-out: T. cruzi IC50 Lab A

Row | Structure (SMILES) | MIC (M. tuberculosis H37Rv) [µg/mL] | GI50 (H460 cells) [µg/mL] | GI50 (HT-29 cells) [µg/mL] | GI50 (MCF-7 cells) [µg/mL] | GI50 (K562 cells) [µg/mL] | GI50 (M-14 cells) [µg/mL] | GI50 (DU145 cells) [µg/mL] | Selectivity Index Lab B ([1]; Lab B) | IC50 [1, 9] [µg/mL] | IC50 ([2]; Cytotoxicity VERO Lab B, Lab B) [µg/mL] | GI50 (3T3 cells) [µg/mL] | Selectivity Index [5] | IC50 at 48 h [6] [µM] | GI50 (VERO cells [7]) [µg/mL] | IC50 ([4]; read-out: L. amazonensis IC50) [µM] | IC50 [1, 10] [µg/mL] | further results
1 | C=CCOc1cc(OC)c(C(=O)/C=C/c2ccc(O)cc2)c(OCC=C)c1 [Compound I-09, (2E)-1-[2-Methoxy-4,6-bis(2-propenyloxy)phenyl]-3-(4-hydroxyphenyl)-2-propen-1-one] | – | – | – | – | – | – | – | – | – | – | – | – | – | – | – | – | inhibition at 10 µg/mL ([1]; Trypanosoma cruzi, TULAHUEN, Vero, 120 h, 10 μg/mL of each compound, 120 hours, read-out: T. cruzi Inhib. (%)): 52.6%; IC50 ([1]; Trypanosoma cruzi, TULAHUEN, Vero, Table 2, read-out: IC50 - T. cruzi): 7.44 µg/mL; IC50 [1, 8]: 20.3 µM; IC50 ([2]; IC50 - VERO Cytotoxicity, Table 2): 28 µg/mL (≈ 76.4 µM); IC50 (VERO cells [3]): 76.4 µM; IC50 ([4]; 72 h, read-out: IC50 L. amazonensis): 85.2 µM
2 | C(=N/Nc1ncnc2sc3c(c12)CCCC3)/c1cccc2ccccc12 [II-02] | > 100 | 7.1 (≈ 19.8 µM) | 2.2 (≈ 6.14 µM) | 2.3 (≈ 6.42 µM) | 1.7 (≈ 4.74 µM) | 6.6 (≈ 18.4 µM) | 8.6 (≈ 24 µM) | 0.2 | 4.7 | 1 (≈ 2.79 µM) | 6 (≈ 16.7 µM) | 1.3 | 6 | 4.3 (≈ 12 µM) | 4.6 | – | –
3 | C(=N/Nc1ncnc2sc3c(c12)CCCC3)/c1ccc2ccccc2c1 [II-03] | > 100 | 7.4 (≈ 20.6 µM) | 6.9 (≈ 19.2 µM) | 3.3 (≈ 9.21 µM) | 2.2 (≈ 6.14 µM) | 12.6 (≈ 35.1 µM) | 8.7 (≈ 24.3 µM) | 1.1 | 4.8 | 5 (≈ 13.9 µM) | 10 (≈ 27.9 µM) | 0.4 | 5.7 | 2.9 (≈ 8.09 µM) | 14 | – | –
4 | CC(C)c1ccc(/C=N\Nc2ncnc3sc4c(c23)CCCC4)cc1 [II-07] | > 100 | 2.1 (≈ 5.99 µM) | 2.1 (≈ 5.99 µM) | 1.8 (≈ 5.14 µM) | 1.4 (≈ 3.99 µM) | 6.2 (≈ 17.7 µM) | 3.8 (≈ 10.8 µM) | 0.5 | 1.8 | 1 (≈ 2.85 µM) | 3.3 (≈ 9.42 µM) | 2.3 | 3 | 2.1 (≈ 5.99 µM) | 1.3 | 0.9 | –
5 | CC(C)(C)c1ccc(/C=N\Nc2ncnc3sc4c(c23)CCCC4)cc1 [II-08] | > 100 | 2.3 (≈ 6.31 µM) | 5.7 (≈ 15.6 µM) | 2.3 (≈ 6.31 µM) | 2.3 (≈ 6.31 µM) | 11 (≈ 30.2 µM) | 8 (≈ 21.9 µM) | 1.2 | 4.1 | 5 (≈ 13.7 µM) | 8.4 (≈ 23 µM) | 3.8 | 2.4 | 2.5 (≈ 6.86 µM) | 0.6 | 1.3 | –
6 | C(=N/Nc1ncnc2sc3c(c12)CCCC3)/c1ccc2c(c1)OCO2 [II-12] | > 100 | > 93.8 | > 93.8 | 41.4 (≈ 117 µM) | > 93.8 | > 93.8 | > 93.8 | 0.7 | 8 | 6 (≈ 17 µM) | > 93.8 | 0.6 | 5.7 | > 93.8 | 10.4 | 2.3 | –
7 | COc1ccc(/C=N\Nc2ncnc3sc4c(c23)CCCC4)c(OC)c1 [II-13] | > 100 | 10.9 (≈ 29.6 µM) | 7.4 (≈ 20.1 µM) | 7.8 (≈ 21.2 µM) | 2.9 (≈ 7.87 µM) | 34.8 (≈ 94.4 µM) | 7.4 (≈ 20.1 µM) | 1.8 | 6.8 | 12 (≈ 32.6 µM) | 7.3 (≈ 19.8 µM) | 4.3 | 53 | 17.7 (≈ 48 µM) | 12.2 | – | –
8 | C=CCOc1cc(/C=N\Nc2ncnc3sc4c(c23)CCCC4)cc(OCC=C)c1Br [II-17] | > 100 | 1.6 (≈ 3.2 µM) | 1.9 (≈ 3.8 µM) | 1.9 (≈ 3.8 µM) | 2 (≈ 4 µM) | 6.4 (≈ 12.8 µM) | < 0.98 | 0.4 | 7.7 | 3 (≈ 6.01 µM) | < 0.98 | 0.7 | 1.7 | 2.2 (≈ 4.4 µM) | 2.6 | 10.2 | –
9 | C(=N/Nc1ncnc2sc3c(c12)CCCC3)/c1ccncc1 [II-20] | > 100 | 52.4 (≈ 169 µM) | 47.3 (≈ 153 µM) | 26 (≈ 84 µM) | 33.8 (≈ 109 µM) | > 62.5 | 26 (≈ 84 µM) | – | – | – | 25.7 (≈ 83.1 µM) | 0.7 | 47.7 | 38.3 (≈ 124 µM) | 72 | – | –
10 | c1ccc(C(=NNc2ncnc3sc4c(c23)CCCC4)c2ccccc2)cc1 [II-49] | > 100 | > 62.5 | > 62.5 | > 62.5 | > 62.5 | > 62.5 | > 62.5 | – | – | – | > 62.5 | 0.9 | 59.8 | > 62.5 | 70.1 | – | –
11 | CC1CS(=O)(=O)CCN1/N=C/c1ccc([N+](=O)[O-])o1 (stereo not drawn) [Nifurtimox, reference compound] | – | – | – | – | – | – | – | – | – | – | – | – | – | – | – | – | IC50 [1, 8]: 0.52 µM; IC50 (VERO cells [3]): 80.1 µM
